Experimental data: PubChem BioAssay (NCI)
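Tested at 5 concentrations; 48 h exposure; 96-well plates; endpoints linearly interpolated, else capped at highest concentration. At the TGI there is no net growth.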

Legend:
Assay in all cases: NCI tumour cell line growth inhibition, 48 h
[1] = system: 786-0 renal
[2] = system: SF-539 CNS
[3] = system: SR leukemia
[4] = system: CCRF-CEM leukemia
[5] = system: SNB-78 CNS
[6] = system: HCC-2998 colon
[7] = system: SK-MEL-2 melanoma
[8] = system: KM12 colon
[9] = system: HT29 colon
[10] = system: NCI-H23 lung
[11] = system: SK-MEL-5 melanoma
[12] = system: HOP-18 NSCLC
[13] = system: OVCAR-8 ovarian
[14] = system: NCI-H460 lung
[15] = system: NCI-H226 lung
[16] = system: IGROV1 ovarian
[17] = system: NCI-H522 lung
[18] = system: LXFL 529 NSCLC
[19] = system: HCT-15 colon
[20] = system: M19-MEL melanoma
[21] = system: HOP-62 NSCLC
[22] = system: RXF 393 renal
[23] = system: DMS 273 small cell lung
[24] = system: UO-31 renal
[25] = system: RPMI-8226 leukemia
[26] = system: SF-295 CNS
[27] = system: SK-MEL-28 melanoma
[28] = system: HL-60(TB) leukemia
[29] = system: EKVX NSCLC
[30] = system: OVCAR-3 ovarian
[31] = system: OVCAR-5 ovarian
[32] = system: DMS 114 small cell lung
[33] = system: K-562 leukemia
[34] = system: U251 CNS
[35] = system: MALME-3M melanoma
[36] = system: KM20L2 colon
[37] = system: M14 melanoma
[38] = system: SW-620 colon
[39] = system: MOLT-4 leukemia
[40] = system: SNB-19 CNS
[41] = system: A549 NSCLC
[42] = system: UACC-257 melanoma
[43] = system: COLO 205 colon
[44] = system: XF 498 CNS
[45] = system: UACC-62 melanoma
[46] = system: HCT-116 colon
[47] = system: SK-OV-3 ovarian
[48] = system: DLD-1 colon
[49] = system: LOX IMVI melanoma
[50] = system: SNB-75 CNS
[51] = system: ACHN renal
[52] = system: HOP-92 NSCLC
[53] = system: OVCAR-4 ovarian
[54] = system: TK-10 renal
[55] = system: RXF-631 renal
[56] = system: SN12C renal
[57] = system: CAKI-1 renal
[58] = system: SF-268 CNS
[59] = system: A498 renal

Measured: TGI

O=C1CN(C(=O)c2ccccc2)Cc2[nH]c3ccccc3c21
not listed: [57] | [58] | [59]
> 100 µM: all other assays above

NCCNc1cccc2ccccc12
not listed: [4] | [11] | [27] | [33] | [39] | [44] | [50]
> 100 µM: all other assays above
